From publication PMC12736270, “Application of Data-Centric Supervised Machine Learning to Predict Phenotypic Activity Against Clinically Relevant Stages of Trypanosoma cruzi” (Pharmaceutics, 2025)
Entries after “also recorded” stand apart in the source; their conditions may differ. Read-outs that look alike come from different tables or passages of the source.

Legend:
[1] = tested on: trypomastigotes of the K98 strain (TcI); experiment: Trypanocidal effect on K98 strain trypomastigotes (motile parasite count); assay type: cell-based, Trypanosoma cruzi; settings: 24 h of incubation
Procedure: (§1) For the evaluation of the trypanocidal effect of selected drugs on trypomastigotes, assays were performed using culture-derived trypomastigotes of the T. cruzi Y and K98 strains. Parasites were incubated in 96-well plates at a density ranging from 5 × 10^5 to 1 × 10^6 trypomastigotes per well, in a final volume of 100 μL of MEM supplemented with 5% serum. Test compounds were previously dissolved in dimethyl sulfoxide (DMSO) and added to the wells so that the final DMSO concentration was 1%. Wells containing 1% DMSO were used as vehicle controls, and 10 μM BZN served as a positive control. In the case of the Y strain, after 24 h of incubation at 37 °C, 10 μL of resazurin solution was added to reach a final concentration of 0.01 mg/mL. Plates were incubated for approximately 4 h at 37 °C to allow fluorescence development, and readings were performed in a microplate reader with excitation and emission wavelengths of 530 nm and 590 nm, respectively. To calculate EC50 in trypomastigotes, six points were used in a concentration range of 5 to 100 μM. At least three independent assays were performed. In the case of the K98 strain, after 24 h of incubation, motile parasites were counted in a hemocytometer chamber under a light microscope. Controls consisted of RPMI-1640 supplemented with 5% FBS as well as RPMI-1640 with 0.1% DMSO. At least three independent assays were performed.

[2] = tested on: culture-derived trypomastigotes of the T. cruzi Y strain; experiment: Trypanocidal effect on Y strain trypomastigotes (resazurin viability); assay type: cell-based, Trypanosoma cruzi; settings: for Activity on Y Trypomastigotes: tested at 10 µM and 50 µM, 24 h
Procedure: as §1

Vero cells = experiment: Cytotoxicity against Vero cells; assay type: cell-based; settings: for CC50 Vero Cells: Not toxic = no toxic effect observed up to 50 µM
[3] = tested on: intracellular amastigotes of the Tulahuen strain; experiment: Intracellular amastigote assay, Tulahuen β-galactosidase strain in Vero cells; assay type: cell-based, Trypanosoma cruzi; settings: for EC50: Trypanosoma cruzi, TULAHUEN, read-out: Activity on Tul Amastigotes; for activity on intracellular amastigotes: Tulahuen strain, infected Vero cells
Procedure: To evaluate the trypanocidal effect of the selected compounds on intracellular amastigotes, the drug screening method reported by Buckner et al. was adapted. Vero cells were seeded at 1 × 10^4 per well on a 96-well culture plate in 100 μL MEM-5% FBS. Tulahuen trypomastigotes overexpressing the E. coli β-galactosidase protein (LacZ clone C4 strain—ATCC® PRA-330™, ATCC, Manassas, VA, USA) were used to infect Vero cell monolayers (MOI: 10:1) in triplicate. After 2 h incubation at 37 °C, the culture media were removed and non-internalized parasites were eliminated by washing each well with at least 10 vol of sterile PBS 1X, after which fresh MEM-5% FBS was added. After 16–18 h, the culture medium was replaced with culture medium bearing the compounds to be tested at the desired concentration. Test compounds were prepared in DMSO, ensuring a final DMSO concentration of 1%. Cells treated with 1% DMSO were used as vehicle controls. To determine the IC50, each drug was evaluated in at least six different concentrations (usually 0.78, 1.56, 3.13, 6.25, 12.5, and 50.0 μM). The plate was further incubated for another 72 h at 37 °C, after which the culture media were removed and cells and intracellular amastigotes were lysed in 100 μL lysis buffer (25 mM Tris pH 8, 2 mM EDTA, 2 mM DTT, 1% Triton X-100, 10% glycerol in ultrapure MQ water) for 10 min at 37 °C. Then, 100 μL 2X reaction buffer (200 mM sodium phosphate, pH 8, 2 mM MgCl2, 100 mM 2-mercaptoethanol, and 1.33 mg.mL^−1 o-nitrophenyl-β-galactoside (ONPG)) was added, and the reaction was allowed to proceed until a yellow color developed (1–2 h at 37 °C). The absorbance at 420 nm was measured in a Synergy HTX multi-mode microplate reader (Biotek Instruments, Winooski, VT, USA) and normalized to the value obtained for the infection in the absence of inhibitors. IC50 for BZN was also evaluated following this method (concentrations evaluated: 0.10, 0.20, 0.39, 0.78, 1.56, 3.13, 6.25, 12.5, and 50.0 μM). Uninfected cells were included as blanks. Each compound was tested in at least two independent experiments.

[4] = parameters: method as in PMID 37061109; settings: phase III clinical trial, non-alcoholic steatohepatitis; cited from earlier work
[5] = Cytotoxicity against Vero cells; assay type: cell-based; settings: African green monkey, Vero cells; Not toxic = no toxic effect observed up to 50 µM
[6] = intracellular amastigotes infecting Vero cells, 72 h
[7] = * not reliable because of the simultaneous toxic effect against Vero cells

| Structure (SMILES) | Activity on Y Trypomastigotes [2] | cytotoxic effects on Vero cells (Vero cells) | CC50 Vero Cells (Vero cells) | EC50 [3, 6] | activity on intracellular amastigotes [3] | also measured |
| --- | --- | --- | --- | --- | --- | --- |
| C[C@]12CCC3=C4CCC(=O)C=C4CC[C@H]3[C@@H]1CC[C@@]2(O)CC#N [Dienogest] | did not exhibit detectable activity; also recorded: Not active |  |  |  |  | EC50 on K98 Trypomastigotes [1]: Not active |
| CCCCOCCOc1ccc(-c2ccc3c(c2)/C=C(/C(=O)Nc2ccc([S@@+]([O-])Cc4cncn4CCC)cc2)CCCN3CC(C)C)cc1 [Cenicriviroc] |  | did not present cytotoxic activity | Not toxic | 4.76 µM | active | selectivity index ([3]; intracellular amastigotes versus Vero cells): greater than 10; primary efficacy endpoints for fibrosis [4]: did not meet its primary efficacy endpoints |
| CC1(C)CCC(c2ccc(Cl)cc2)=C(CN2CCN(c3ccc(C(=O)NS(=O)(=O)c4ccc(N[C@H](CCN5CCOCC5)CSc5ccccc5)c(S(=O)(=O)C(F)(F)F)c4)cc3)CC2)C1 [Navitoclax] |  | cytotoxic effects |  |  |  | CC50 [5]: 6.03 µM; EC50 [3, 7]: 2.14 µM |
| CC#C[C@]1(O)CC[C@H]2[C@@H]3CCC4=CC(=O)CCC4=C3[C@@H](c3ccc(N(C)C)cc3)C[C@@]21C [Mifepristone] | Active |  |  |  |  | EC50 ([1]; Trypanosoma cruzi): 17.9 µM; reduction in parasite viability ([2]; 50 µM, after 24 h of incubation, Y strain): 69.5% |
| CC(F)(F)c1cc(F)ccc1-c1sc2cc(O)ccc2c1Oc1ccc(/C=C/C(=O)O)cc1 [LSZ-102] |  | did not present cytotoxic activity | Not toxic | 19.4 µM | active |  |
| C=CC[C@]1(O)CC[C@H]2[C@@H]3CCC4=CC(=O)CCC4=C3C=C[C@@]21C [Altrenogest] | did not exhibit detectable activity; also recorded: Not active |  |  |  |  | EC50 on K98 Trypomastigotes [1]: Not active |
| Cc1ccc(-n2nc(C(C)(C)C)cc2NC(=O)Nc2ccc(OCCN3CCOCC3)c3ccccc23)cc1 [Doramapimod] |  | did not present cytotoxic activity | Not toxic | 11 µM | active |  |
| COCCNCc1ccc(-c2cc3nccc(Oc4ccc(NC(=S)NC(=O)Cc5ccc(F)cc5)cc4F)c3s2)nc1 [Glesatinib] |  | cytotoxic effects |  |  |  | CC50 [5]: ~25 µM; EC50 [3, 7]: 6.49 µM |
